Reference: ChEMBL document CHEMBL4483862, “Open-source discovery of chemical leads for next-generation chemoprotective antimalarials” (2018)

Tested on: Plasmodium berghei
Assay: Luciferase/luciferin-expressing antifolate-resistant parasites were used to infect a culture of HepG2 cells that were pre-incubated with compounds. Infected hepatocytes emit light due to the luciferase reaction. Assay results are presented as the percent inhibition of light emission compared to control. […]
Format: functional
Settings: sporozoite; for IC50: read-out: LUCIFERASE INFECTION ASSAY - IC50; for IC90: read-out: LUCIFERASE INFECTION ASSAY - IC90

| Structure (SMILES) | IC50 [µM] | IC90 [µM] |
| --- | --- | --- |
| N#Cc1ccsc1NC(=O)c1ccc(Cl)c([N+](=O)[O-])c1 | > 10 | > 10 |
| CCOC(=O)/C=C/C(=O)OCC(=O)NC(c1ccccc1)c1ccccc1 | > 10 | > 10 |
| C/C(=N\Nc1nc2ccccc2[nH]1)c1ccc(N2CCOCC2)cc1 | > 10 | > 10 |
| C/C(N)=C(/C#N)C(=O)COC(=O)c1cc(-c2cccc3ccccc23)nc2ccccc12 | > 10 | > 10 |
| O=[N+]([O-])c1ccccc1N1CCN(Cc2nc3ccccc3s2)CC1 | > 10 | > 10 |
| Cc1ccc(Nc2nc(COC(=O)c3ccccc3Sc3ccc(C(F)(F)F)cc3[N+](=O)[O-])cs2)cc1 | > 10 | > 10 |
| O=C(Nc1ccccc1)c1ccccc1OCC(O)COCc1ccc(Cl)cc1 (centres undefined) | > 10 | > 10 |
| COc1ccccc1NC(=O)Cc1noc(CNc2ccc(F)cc2C)n1 | > 10 | > 10 |
| Cc1ccc(Sc2ccc(NC(=O)C3CC(=O)N(C4CC4)C3)cc2)c(C)c1 (centres undefined) | > 10 | > 10 |
| Cc1nc(SCC(=O)N2CCC(c3nc4ccccc4o3)CC2)c2c(C)c(C)sc2n1 | > 10 | > 10 |
| CN(C(=O)CCN1C(=O)CCC1=O)c1ccccc1 | > 10 | > 10 |
| Cc1nc2cc(NC(C)C(=O)Nc3ccc([N+](=O)[O-])cc3Cl)ccc2o1 (centres undefined) | > 10 | > 10 |
| NC(=O)c1cccc(CNc2cnn(CCOc3ccc(Cl)cc3)c(=O)c2Cl)c1 | 2.11 | > 10 |
| CC1C(OC(=O)c2ccc(CS(C)(=O)=O)cc2)CC2CC1C2(C)C (centres undefined) | > 10 | > 10 |
| COc1ccc(OCCCN2CCN(C(=O)C34CC5CC(CC(C5)C3)C4)CC2)cc1 | > 10 | > 10 |
| COc1ccc(OCCSCc2cc(=O)n3c4c(sc3n2)CCCC4)cc1 | > 10 | > 10 |
| COc1ccccc1CNC(=O)CSc1nnc(-c2ccccc2)c2ccccc12 | > 10 | > 10 |
| CS(=O)(=O)c1ccc(N2CCCN(c3ccc(C(F)(F)F)cn3)CC2)c([N+](=O)[O-])c1 | > 10 | > 10 |
| Cc1cc(OCC(=O)NC(C)c2ccc(-n3cncn3)cc2)no1 (centres undefined) | > 10 | > 10 |
| Cc1sc(-c2ccco2)nc1C(=O)Nn1cnc2ccccc21 | > 10 | > 10 |
| N#Cc1ccc(F)c(CN2CCN(Cc3nc(-c4ccc(Cl)cc4)no3)CC2)c1 | > 10 | > 10 |

| Structure (SMILES) | IC50 [µM] | IC90 [µM] |
| --- | --- | --- |
| O=C(NC1CC1)c1ccc(CN(C2CC2)S(=O)(=O)c2cccc3c2N=S=N3)cc1 | > 10 | > 10 |
| Cn1c(N)c(C(=O)COC(=O)c2ccccc2NCCC2=CCCCC2)c(=O)n(C)c1=O | > 10 | > 10 |
| O=C(Cn1[nH]c(=O)c2ccccc2c1=O)NCc1ccc(CN2CCOCC2)cc1 | > 10 | > 10 |
| CCCc1cc(=O)nc(SCC(=O)NC(=O)c2ccc(C(C)(C)C)cc2)[nH]1 | > 10 | > 10 |
| CCCN(CC(=O)Nc1scc(-c2ccccc2)c1C(=O)OCC)Cc1nnc(-c2ccco2)o1 | > 10 | > 10 |
| CCCOc1ccccc1NC(=O)c1cnc2c(c1)c(=O)[nH]c(=O)n2C | > 10 | > 10 |
| O=C(c1ccc(O)cc1)C1CCN(C(=O)c2cccc(N3CCCC3=O)c2)CC1 | > 10 | > 10 |
| COCCN(Cc1nc(=O)c2ccccc2[nH]1)C(=O)C1=NN(c2ccccc2)C(c2ccccc2)C1 (centres undefined) | > 10 | > 10 |
| CCCC1NC(=O)N(CC(O)COc2cccc(C(=O)OCC)c2)C1=O (centres undefined) | > 10 | > 10 |
| CC(C)c1cccc(N2CC(C(=O)N3CCC(C(N)=O)CC3)CC2=O)c1 (centres undefined) | > 10 | > 10 |
| CNC(=O)Cc1ccc(NC(=O)CCSC)cc1 | > 10 | > 10 |
| CC(C)c1cc(=O)oc2cc(OS(=O)(=O)c3cc(C(N)=O)n(C)c3)ccc12 | > 10 | > 10 |
| Cn1cc(/C=C/C(=O)c2ccc(-c3ccc(F)cc3)s2)cn1 | > 10 | > 10 |
| Cc1cc2oc(=O)cc(CN3CCN(S(=O)(=O)c4ccc([N+](=O)[O-])cc4)CC3)c2cc1Cl | 4.19 | 8.57 |
| Cn1c(Cc2ccccc2)ns/c1=N\C(=Nc1ccccc1)c1ccccc1 | > 10 | > 10 |
| NC(=O)c1ccc(C(F)(F)F)n(CC(=O)c2ccc3c(c2)OCCO3)c1=O | > 10 | > 10 |
| Cc1ccc(Cn2ncc3c(C(=O)Nc4ccc(C)c(F)c4)cc(C)nc32)cc1 | > 10 | > 10 |
| Cc1csc(=O)n1CC(=O)Nc1ccccc1C(=O)NCc1ccco1 | > 10 | > 10 |
| O=C(Cc1noc2ccccc12)Nc1ccc(C(=O)N2CCCC2)cc1 | > 10 | > 10 |
| CNc1snc(C)c1C(=O)NCC(C(C)C)N1CCc2ccccc2C1 (centres undefined) | > 10 | > 10 |
| CN(Cc1ccccc1N1CCOCC1)C(=O)/C=C/c1c(Cl)nc2ccccn12 | > 10 | > 10 |

| Structure (SMILES) | IC50 [µM] | IC90 [µM] |
| --- | --- | --- |
| Cc1ccc(-c2cc(C(=O)NNC(=O)c3nn(C)c(=O)c4ccccc34)[nH]n2)cc1 | > 10 | > 10 |
| COc1ccccc1-c1nc(COC(=O)c2cccnc2SC)cs1 | > 10 | > 10 |
| CCCCn1nnnc1COC(=O)c1ccccc1Sc1ccccc1C#N | > 10 | > 10 |
| Cc1ccc(C)c(S(=O)(=O)CCN2C(=O)C(=O)N(Cc3cccs3)C2=O)c1 | > 10 | > 10 |
| Cc1nn(CC(=O)Nc2cc(C(F)(F)F)ccc2Oc2ccc(Br)cc2)c(=O)c(C#N)c1C | > 10 | > 10 |
| Cc1cc(C(=O)Cn2cnc3ccc([N+](=O)[O-])cc3c2=O)c(C)n1CC1COc2ccccc2O1 (centres undefined) | > 10 | > 10 |
| O=C(NC1CC1)c1ccc(CN(C2CC2)S(=O)(=O)c2ccccc2F)cc1 | 1.29 | 1.51 |
| CCN(c1ccccc1)S(=O)(=O)c1ccc(Cl)c(C(=O)Nc2ccn(C)n2)c1 | > 10 | > 10 |
| O=c1nc(/C=C/c2cccc3cccnc23)[nH]c2sc3c(c12)CCCCC3 | > 10 | > 10 |
| CN(Cc1cn(-c2ccccc2)nc1-c1ccccc1)C(=O)NCCCc1nc2ccccc2[nH]1 | > 10 | > 10 |
| COc1ccc(F)cc1-c1csc(-c2ccc(NC(=O)c3cccs3)cc2)n1 | > 10 | > 10 |
| CCN(CC)S(=O)(=O)c1ccc2nnc(Sc3nc(C)nc4sc5c(c34)CCCC5)n2c1 | > 10 | > 10 |
| CN(Cc1nc(-c2ccccc2)c2ccccc2n1)Cc1nc(=O)c2ccccc2[nH]1 | > 10 | > 10 |
| COC(=O)c1cc([N+](=O)[O-])ccc1N1CCN(c2cc(C)nc(C(C)C)n2)CC1 | > 10 | > 10 |
| Cc1nc2ccccc2n1CCNC(=O)N1CCN(c2ccc(C(F)(F)F)cc2[N+](=O)[O-])CC1 | > 10 | > 10 |
| Cc1sc(NC(=O)CC(C)NC(=O)c2ccccc2)nc1-c1ccc(F)c(F)c1 (centres undefined) | > 10 | > 10 |
| CC(Nc1ccc(C(N)=O)cc1[N+](=O)[O-])C12CC3CC(CC(C3)C1)C2 (centres undefined) | 5.52 | > 10 |
| Cn1c(CSc2nc3ccccc3s2)nn(CN2CCCc3ncccc32)c1=S | > 10 | > 10 |
| Cn1cccc1C(=O)NC(=O)COC(=O)CCNC(=O)c1ccc([N+](=O)[O-])cc1 | > 10 | > 10 |
| O=C(CCc1ccc(-c2ccccc2)o1)Nc1nc(CN2CCCCC2)cs1 | > 10 | > 10 |
| N#Cc1c(CCCNC(=O)/C=C/c2ccc(Cl)c(C(F)(F)F)c2)nn(-c2ccc(F)cc2)c1N | > 10 | > 10 |

| Structure (SMILES) | IC50 [µM] | IC90 [µM] |
| --- | --- | --- |
| Cc1cc(C)cc(C(=O)/C=c2\[nH]c(=O)/c(=C\c3cccs3)s2)c1 | > 10 | > 10 |
| CC(C)(C)C(=O)N1CCC(C(=O)N(Cc2ccccc2)c2nc3c(s2)CCCC3)CC1 | > 10 | > 10 |
| CCc1cc(=O)oc2cc(OCc3csc(N(C(C)=O)c4cccc(C)c4)n3)ccc12 | > 10 | > 10 |
| CC(C)c1ccc(CSc2nnc(CC3CCS(=O)(=O)C3)o2)cc1 (centres undefined) | > 10 | > 10 |
| COc1ccc(CNC(=O)NC2CCCCCCC2)cn1 | > 10 | > 10 |
| Cc1ccccc1Nc1nc(N)nc(CSc2nc(=O)c3c(-c4cccs4)csc3[nH]2)n1 | > 10 | > 10 |
| Cc1ccc2nc(COc3ccc(C(=O)NC4(C)CCS(=O)(=O)C4)cc3)cn2c1 (centres undefined) | > 10 | > 10 |
| CCCCNC(=O)NCCc1ccc2c(c1)OCCO2 | > 10 | > 10 |
| Cc1ccc(-c2nn(CN(C)CC(=O)NC(C)C)c(=S)n2C)cc1 | > 10 | > 10 |
| Cc1ccc(-c2nnc(SCC(=O)N3c4ccccc4OCC3c3ccccc3)[nH]2)cc1 (centres undefined) | > 10 | > 10 |
| Cc1ccc(-n2nc(C)c(NC(=O)Cn3c(NCc4ccccc4)nc4ccccc43)c2C)cc1 | > 10 | > 10 |
| NC(=O)C1Cc2ccccc2CN1S(=O)(=O)c1cccc2c1N=S=N2 (centres undefined) | > 10 | > 10 |
| Cc1nc2sccn2c1C(=O)c1ccc(NS(=O)(=O)c2cc(C(=O)O)n(C)c2)cc1 | > 10 | > 10 |
| O=C1N(Cc2ccccc2)c2ccccc2C12Oc1ccc(Br)cc1-c1cc(-c3ccccc3)nn12 (centres undefined) | 9.29 | > 10 |
| CCCn1c(NC(=O)C2CCN(c3ccc4nnc(C(F)(F)F)n4n3)CC2)nc2ccccc21 | 6.49 | > 10 |
| CC(C)(C)c1ccc(/C=C/C(=O)NCc2ccc(NC(=O)C3CC3)cc2)cc1 | 2.38 | 6.63 |
| CC(=O)Nc1ccc(S(=O)(=O)N(C)CC(=O)NCCC(=O)N2CCCC2)cc1 | > 10 | > 10 |
| CC1CC(C)CN(S(=O)(=O)N2CCN(c3ccc(C(F)(F)F)cc3[N+](=O)[O-])CC2)C1 (centres undefined) | > 10 | > 10 |
| CC(C)(C)c1ccc(/C=C2\CCCc3c2nc2ccccc2c3C(=O)OCC(=O)N2CCOCC2)cc1 | 8.09 | > 10 |
